Assay [1] deals with cephalosporin C amidohydrolase. The assay is described as follows: Enzyme activity assay, E. coli B1113 extract after DE52 cellulose. It is filed as biochemical, Pseudomonas vesicularis. Conditions: extract 50. As for the experimental part: (§1) Substrate buffer consists of 50 mM sodium phosphate buffer pH 7.0 containing 13.5 mg/ml cloxacillin and GL-7CA (3 mg/ml) or cephalosporin C (10 mg/ml). Cell suspensions or semi-purifed enzyme samples were incubated in substrate buffer for up to 24 hours at 37° C. At a suitable time a 100 μl aliquot of fluram reagent was then added, mixed and the sample incubated at room temperture for 1 hour. Fluram reagent consists of fluroescamine (Sigma Chemical Co) at 1 mg/ml in dry acetone. The presence of 7ACA in the reaction mix was detected after derivatisation of the free primary amine group by using fluorescence spectroscopy at an excitation wave length of 378 nm and emission detection at 498 nm in a flow injection assay system with 10% acetone in water as carrier fluid.
E. coli B1113 was grown on TSB agar plates following the method of preparation 1(b). The confluent cell growth was processed for amidohydrolase recovery essentially following the procedure of preparation 1(d) to the cell-free extract stage.
Amidohydrolase activity was further purified by application of the cell-free extract to a DE52 cellulose column (Whatman Ltd, Maidstone, Kent ME14 2ME). The majority of proteins in the extract bind to the matrix and amidohydrolase activity is not retained. […]

The test system of assay [2] is cephalosporin C amidohydrolase. Kind of assay: Enzyme activity assay, NM522/pVS44 extract after DE52 cellulose. It is filed as biochemical, Pseudomonas vesicularis. Particulars: 10 μl extract; 50 mg/ml cephalosporin C; 3 hour incubation at 27° C. How it is done:
as §1
Cephalosporin C amidohydrolase enzyme activity was recovered from NM522/pVS44 cells using procedures of preparation 1(b) and 1(c) to the cell free extract stage followed by chromatography on DE52 cellulose as described above. In a typical assay using the method of preparation 1(c), a 10 μl extract produced 12 μg/ml 7ACA from 50 mg/ml cephalosporin C in a 3 hour incubation at 27° C. This represents approximately 30-fold improvement over the level of activity obtained using B1113 strain extract aat an equivalent stage of purification.

Assay [3] concerns gram-negative microorganisms. Conditions: against gram-negative microorganisms; cited from earlier work.
Assay [4] deals with cephalosporin C amidohydrolase. Kind of assay: Cephalosporin C amidohydrolase enzyme properties, kinetic. Format: biochemical, Pseudomonas vesicularis B965. As for the experimental part: as §1
Further purification of the amidohydrolase was undertaken using an FPLC system (Pharmacia LKB Biotechnology, S-751 82 Uppsala, Sweden) in order to define the properties of the enzyme.
Material recovered from the 30-60% saturation ammonium sulphate precipitate was resuspended in MOPS buffer (10 mM MOPS pH8.0, 1 mM benzamidine). The solution was clarified by brief centrifugation followed by filration through a 0.2 micron filter. A 5 ml aliquot of enzyme mixture was applied to an HR5/5 MonoQ column pre-equilibrated with MOPS buffer. Amidohydrolase activity was recovered in the eluate between 2-4 after loading. This fraction was adjusted to 30% saturation in ammonium sulphate and loaded to an HR10/30 phenylsuperose column. Elution of protein was achieved using a salt gradient regime varying from 30%-0% saturation in ammonium sulphate with a running buffer consisting of 100 mM sodium phosphate pH7.0, 1 mM DTT. Amidohydrolase activity was recovered at between 18.5%-15.0% saturation of ammonium sulphate under these conditions.

Assay [5] deals with Immobilised amidohydrolase. The assay is described as follows: Immobilised amidohydrolase activity (pH stat, DMAB assay). Format: biochemical, Pseudomonas vesicularis. Conditions: for Activity μmole 7ACA/min/g dry weight immobilised enzyme / Activity μmole/min/g wet weight immobilised enzyme: 50 mg/ml substrate in water, 25° C., pH 8.0. How it is done:
E. coli strain NM522/pVS 44 was grown on TSB medium supplemented with 10 μg/ml choramphenicol and solidified with 1.5% w/v agar. Growth was for 2-4 days at 27.5° C. Cell paste was recovered by scraping from the agar surface, resuspended and washed in lysis buff (10 mM MOPS pH 8.0; 1 mM DTT; 1 mM benzamidine). About 65 g cell paste was lysed in 350 ml ice cold buffer by sonication (650W output, power setting 4, 5 passes through a continuous flow head at 35 ml/min flow, sample chilled on ice). The lysate was clarified by centrifugation (15,000 rpm, 30 min) to yield 3120 mg soluble protein. This material was passed over a 300 ml column of pre-equlibrated DE52 cellulose. Fractions eluting between 100 ml-500 ml after loading contained amidohydrolase activity in a total of 398 mg protein. The protein was concentrated using a centrifugal membrance device (Centriprep 30 concentrator, Amicon).
The concentrated extract (300 mg protein, 12.54 ml) was adjusted to 100 mM phosphate buffer pH 8.0:1 mM DTT; 1 mM benzamidine, and mixed with 3.0 g (dry weight) oxirane-linked polyacrylic matrix (Eupergit C: Rohm Pharma GmbH, D-6100 Darmstadt Germany). Immobilisation, monitored by protein removal from the liquid phase, was complete by 116 hours. About 120 mg protein became covalently linked to the support. Excess protein was removed by washing in the phosphate buffer.
Immobilised amidohydrolase activity was monitored by allowing the enzyme catalysed reaction to occur using an automated control system set to detect and maintain the reaction pH at a set point (a pH stat system). A pH monitor was set such that a fall in pH from the set point triggered a peristaltic pump to allow regulated dosing of alkali titrant.
A reaction volume of 50 ml contained 50 mg/ml substrate (GL-7ACA or Ceph C) in water maintained at 25° C. The reaction mix was adjusted to pH 8.0 using 2M NaOH as titrant before addition of about 3 g dry weight (12 g wet weight) immobilised enzyme to initate the reaction. The suspension was stirred using an overhead paddle type stirrer. Reaction progress was monitored by titrant addition rate and sampling at intervals. The samples were assayed for 7ACA by the DMAB method as in preparation 1(a). By this method the following activities were measured. (Table 8.)

Assay [6] has as its system cephalosporin C amidohydrolase. The assay is described as follows: Enzyme activity assay, B965 whole cells (7ACA production). Format: biochemical, Pseudomonas vesicularis B965. As for the experimental part: as §1
(§2) The enzyme reaction mix was derivatised as above a 20 μl sample applied in a mobile phase consisting of 35% acetonitrile, 0.1% trifluoroacetic acid in HPLC-grade water onto a 15 cm Hypersil ODS 5μ column at 32° C. with a flow rte of 1.5 ml/min. Detection by fluorescence spectroscopy was as above. In this system authentic 7ACA standard has a retention time of 6.7 minutes, with a minor degradation peak at
In typical experiments using these conditions B965 cells sufficient to fill a 10 μl inoculating loop produced 320 μg/ml 7ACA in 18 hours incubation GL-7ACA as substrate. […]

The subject of assay [7] is cephalosporin C amidohydrolase. The assay is described as follows: Substrate comparison, assay response by HPLC, enzyme from NM522/pVS44 cells. Format: biochemical, Pseudomonas vesicularis. How it is done:
as §2
(a) Assay response is given as product yield standardised to the 7ACA produced from GL-7ACA under equivalen reaction conditions. For this comparison it is assumed that products have molar extinction coefficients equivalent to 7ACA, such that the response was calculated directly from product peak area on HPLC. The standard reaction used 100 μl enzyme prepared by the procedure of preparation of 2(d) from NM522/p/VS44 cells, with 10 mg/ml substrate in overnight reaction at 27° C.
(b) Assay response obtained using 10 μl of above enzyme extract, with 3 mg/ml substrate in 2 hour reaction at 27° C. The actual response was then extrapolated to equivalent conditions to those used with the more slowly hydrolysed substrates.

Assay [8] deals with cephalosporin C amidohydrolase. The assay is described as follows: Enzyme activity assay, partially purified amidohydrolase recovered from B965. It is filed as biochemical, Pseudomonas vesicularis B965. As for the experimental part:
as §1, with “Cell” for “Substrate buffer consists of 50 mM sodium phosphate buffer pH 7.0 containing 13.5 mg/ml cloxacillin and GL-7CA (3 mg/ml) or cephalosporin C (10 mg/ml). Cell”
B965 cells were cultured on TSB agar plates essentially by the method of preparation 1(b). The cells were harvested into enzyme buffer, washed and finally resuspended in 10 ml chilled enzyme buffer. Enzyme buffer is 100 mM sodium phosphate buffer (pH 7.0) containing 1 mM DTT and 1 mM benzamidine. The cells were lysed by sonication using a 650W output sonicator (model W-380, Heat System Ultrasonics Inc, 1938 New Highway, Farmingdale, N.Y. 11735, USA) on power settings 2-3, 50% cycle, for 12 , minutes . The extract was clarifed by centrifugation at 18,000 g for 15 minutes at 4° C. The supernatant was recovered, adjusted to 10 ml volume in enzyme buffer, then solid ammonium sulphate was added slowly with gentle mixing at 4° C. to 30% saturation. […]

Where [9] appears, read: 100 μl enzyme from NM522/pVS44 cells, 10 mg/ml substrate, overnight reaction at 27° C., standardised to 7ACA produced from GL-7ACA.

Where only a bound is given, the exact number is not on record here.

The term Km denotes the substrate concentration at which the rate is half of its maximum.

In the case of `CC(=O)OCC1=C(C(=O)O)N2C(=O)[C@@H](NC(=O)CCC[C@@H](N)C(=O)O)[C@H]2SC1` [Ceph C, cephalosporin C], the “7 ACA Produced” value in assay [1] (Ceph C 10 mg/ml, 4 hr) turned out to be 4.5 µg/mL; in assay [2], 12 µg/mL; in assay [6] (double the volume of B965 cells, cephalosporin C as substrate, overnight incubation) it was 5 µg/mL; in assay [8] (extract 80 μl, Ceph C 50 mg/ml, 8 hr), 14.5 µg/mL. The “activity as an antibiotic” value in assay [3] was “some activity”. Further, in assay [4] (using Ceph C substrate), the Specific activity maximum worked out at 0.141 μmol 7ACA/min/mg enzyme. Moreover, the “Activity μmole 7ACA/min/g dry weight immobilised enzyme” value in assay [5] is recorded as 0.95 μmole 7ACA/min/g dry weight im. The “Activity μmole/min/g wet weight immobilised enzyme” value in assay [5] is on record as 0.24 μmole/min/g wet weight immobil. This compound also returned a maximum conversion in assay [5] (cephalosporin C substrate, 22 hours, immobilised enzyme) of 1.7%. Further, in assay [7] (setting [9]), the “Assay response (% rate of 7ACA)” value came out at 8.0%.
Regarding `CC(=O)OCC1=C(C(=O)O)N2C(=O)[C@@H](NC(=O)CCCC(=O)O)[C@H]2SC1` [GL-7ACA, 7-β-(4-carboxybutanamido)-cephalosporanic acid], the “7 ACA Produced” value came to 102 µg/mL in assay [1] (GL-7ACA 3 mg/ml, 3 hr); 320 µg/mL in assay [6] (B965 cells filling a 10 μl inoculating loop, GL-7ACA as substrate, 18 hours incubation); 22 µg/mL in assay [8] (extract 10 μl, GL-7ACA 2 mg/ml, 4 hr). Moreover, the Km in assay [4] (GL-7ACA substrate at 1.2-7.2 mM) is 2000 to 4000 µM. Further, the “Activity μmole 7ACA/min/g dry weight immobilised enzyme” value in assay [5] is given as 4.7 μmole 7ACA/min/g dry weight im. Besides, the “Activity μmole/min/g wet weight immobilised enzyme” value in assay [5] was 1.2 μmole/min/g wet weight immobil. Also, the conversion achieved in assay [5] (GL-7ACA as substrate, immobilised enzyme) is listed as 9.0%. The “Assay response (% rate of 7ACA)” value in assay [7] (10 μl enzyme extract, 3 mg/ml substrate, 2 hour reaction at 27° C., extrapolated to equivalent conditions (reference = 100)) is 100%.
For the compound `N.N.O=S(=O)(O)O` [ammonium sulphate], in assay [4], the “Inhibitors (inhibitory concentration)” value is over 6 % w/v.
As to `CC(=O)OCC1=C(C(=O)O)N2C(=O)[C@@H](NC(=O)CCCC(NC(=O)c3ccccc3)C(=O)O)[C@H]2SC1` (some centres unmarked) [benzoylcephalosporin C], the “Assay response (% rate of 7ACA)” value in assay [7] (setting [9]) was determined as 2.8%.
On the same count and under the same terms, the figure for `O=C(CCCC(NC(=O)c1ccccc1)C(=O)O)N[C@@H]1C(=O)N2C(C(=O)[O-])=C(C[n+]3ccccc3)CS[C@H]12` (some centres unmarked) [benzoylcephalosporin-3-pyridiniummethyl] is 3.5%.
Same read-out and setting: in the case of `N[C@H](CCCC(=O)N[C@@H]1C(=O)N2C(C(=O)O)=C(CO)CS[C@H]12)C(=O)O` [deacetylcephalosporin C] it was 9.8%; in that of `CC(=O)OCC1=C(C(=O)O)N2C(=O)[C@@H](NC(=O)CCC(=O)O)[C@H]2SC1` [succinyl-7ACA], 0.8%.
